Measured values published in patent US20160287601A1, “ENHANCED TREATMENT REGIMENS USING PI3K INHIBITORS” (MILLENNIUM PHARMACEUTICALS, INC., priority 2013, published 2016).

Columns and labels:
[1] = test system: MDA-MB-361 human breast cancer xenografts; assay: Antitumor activity in MDA-MB-361 human breast cancer xenografts, various doses and schedules; format: in vivo, female athymic nude mice; conditions: PO
Description: Objectives of this study: to determine the in vivo antitumor activity of compound A at various doses and schedules in the MDA-MB-361 human breast cancer xenografts after oral (PO) administration in female nude mice.
Compound A was prepared according to methods disclosed in WO 2011/022439 and WO 2013/071272 and stored at approximately 25° C., shielded from light. The control used in this study was 100% PEG400.
Low passage MDA-MB-361 cells were grown in Dulbecco's Modified Eagle's Medium (DMEM) media supplemented with 20% fetal bovine serum (FBS) and 1× penicillin/streptomycin (Invitrogen [Carlsbad, Calif., USA]) until approximately 80% confluency was reached. […]
Four-five week old female athymic nude mice were inoculated SC in flank (cell suspension in serum free DMEM and 50% Matrigel) with 10.0×10^6 MDA-MB-361 cells. Tumor growth was monitored with vernier calipers. The mean TV (MTV) was calculated using the formula V=W^2×L/2.
When tumors reached a mean tumor volume (MTV) of approximately 280 mm^3, mice (n=5/group) were treated with vehicle (PEG400) or compound A (60, 70, 140, or 210 mg/kg) administered concurrently via oral gavage over a 28 day treatment period on the schedules indicated below in Table 2. The percentage of tumor growth inhibition (TGI) and percent body weight (BW) change were determined on Day 28. […]

[2] = Phase 1 clinical study, safety and tolerability (MTD, AEs grade 3 or higher) in patients with advanced solid malignancies; format: in vivo
Excerpt: A phase 1 clinical study was initiated to evaluate the safety, tolerability, PK, pharmacodynamics; to determine the maximum tolerated dose (MTD) in each of 3 schedules described below; and to evaluate antitumor activity in patients with advanced solid malignancies.
Inclusion Criteria • Subjects have had their PIK3CA gene mutation status assessed prior to enrolling into the study • Subjects must have documented disease progression prior to enrolling into the study • locally advanced or metastatic solid tumors with the exception of primary brain tumor, and have failed or are not eligible for standard of care therapy. • Age ≧18 years, including males and females; • ECOG performance status (PS) 0-1; • Adequate organ function; • Male subjects must be surgically sterile or must agree to use physician-approved contraception during the study and for 30 days following the last study drug administration; • Ability to swallow oral medications; • Ability to understand and willingness to sign informed consent prior to initiation of any study procedures; • For women of child-bearing potential, negative serum pregnancy test within 14 days prior to the first study drug administration and use of physician-approved method of birth control from 30 days prior to the first study drug administration to 30 days following the last study drug administration
35 patients were enrolled into the dose escalation phase of the study, which is designed to determine the MTD of compound A when given orally on continuous (daily) or intermittent schedules. The MTD for the QD dosing schedule was determined to be 100 mg.
Other than MTD, the other primary outcome measures is the tolerability profile of compound A or the number of adverse events (AE) from the first dose of study drug through 30 days after the last dose of study drug. Plasma levels of compound A is one of the secondary outcome measures.

[3] = test system: T47D (PIK3CA mutant, ER/PR+) human breast cancer xenografts; assay: Antitumor activity alone and in combination with fulvestrant in T47-D xenografts; format: in vivo, NOD-SCID mice; conditions: Compound A 70 mg/kg PO QD x 3/wk x 3, Fulvestrant 100 mg/kg SC QW x 3; for TGI (tumor growth inhibition): Day 21 post treatment initiation; for ΔAUC (change in area under the tumor volume-versus-time curves): versus vehicle, 21 day treatment
Excerpt: The control used in this study was 100% PEG400+0.9% Saline. Fulvestrant was formulated in 0.9% saline.
Prior to injection, the cells were detached with Trypsin (Invitrogen), washed twice with phosphate buffered saline (PBS), and resuspended in RPMI (Roswell Park Memorial Institute) media (Invitrogen,) without supplements. Cells were resuspended to a final concentration of 10.0×10^7 cells/ml in DPBS and mixed with 50% Matrigel (BD Biosciences) at 1 to 1 volume. T47-D cells (10.0×10^6 cells/animal in 02-mL injection volume) were implanted S.C. into the right flank of NOD-SCID mice (Harlain Laboratories).
Four-six week old female NOD-SCID mice were inoculated SC in flank (cell suspension in DPBS and 50% Matrigel) with 10.0×10^6 T47-D cells. Tumor growth was monitored with vernier calipers. The mean TV (MTV) was calculated using the formula V=W2×L/2.
The percentage of tumor growth inhibition (TGI) and percent body weight (BW) change were determined on Day 21 and provided in Table 6. Statistical comparisons of tumor growth between the treatment and vehicle groups were conducted using a linear mixed effects regression analysis on the change in area under the tumor volume (TV)-versus—time curves (ΔAUC) values. All p values less than 0.05 were considered significant.
A combination score calculation was used to address the question of whether the effects of the combination treatments were synergistic, additive, subadditive, or antagonistic relative to the individual treatments. The effect was considered synergistic if the synergy score was less than 0, and additive if the synergy score wasn't statistically different from 0.

Row | Compound | efficacy in reducing tumor size, intermittent regimen versus daily administration ([1]; 28 day treatment, total amount administered comparable in daily and intermittent schedules) | relationship between efficacy (tumor growth inhibition, TGI) and exposure (AUC) between dosing schedules ([1]; single agent, FIG. 3) | maximum tolerated dose (MTD) ([2]; QD (continuous daily) oral dosing schedule) [mg] | Abdominal pain, AEs grade 3 or higher ([2]; both, human, in vivo) | Anaemia, AEs grade 3 or higher ([2]; both, human, in vivo) | Chills, AEs grade 3 or higher ([2]; both, human, in vivo) | Decreased appetite, AEs grade 3 or higher ([2]; both, human, in vivo) | Diarrhoea, AEs grade 3 or higher ([2]; both, human, in vivo) | Drug-induced liver injury, AEs grade 3 or higher ([2]; both, human, in vivo) | Hyperglycaemia, AEs grade 3 or higher ([2]; both, human, in vivo) | Nausea, AEs grade 3 or higher ([2]; both, human, in vivo) | Oxygen saturation, AEs grade 3 or higher ([2]; both, human, in vivo) | Transaminases incr'd, AEs grade 3 or higher ([2]; both, human, in vivo) | TGI (tumor growth inhibition) [3] [%] | TGI (tumor growth inhibition) ([3]; listed as compound A) [%] | ΔAUC (change in area under the tumor volume-versus-time curves) [3]
1 | Nc1nc2cc(-c3ccc4ncc(C(=O)N5CCOCC5)n4c3)ccc2o1 [Compound A, (6-(2-aminobenzo[d]oxazol-5-yl)imidazo[1,2-a]pyridin-3-yl)(morpholino)methanone] | as efficacious in reducing tumor size as daily administration | AUC-driven | 100 | 1 (4) n (%) | 1 (5) n (%) | 1 (6) n (%) | 1 (6) n (%) | 1 (6) n (%) | 1 (4) n (%) | 2 n (%) | 1 (6) n (%) | 1 (6) n (%) | 2 (8) n (%) | 52.60 | 52.6 | 61.2
2 | C[C@]12CC[C@@H]3c4ccc(O)cc4C[C@@H](CCCCCCCCC[S+]([O-])CCCC(F)(F)C(F)(F)F)[C@H]3[C@@H]1CC[C@@H]2O (stereo partly drawn) [Fulvestrant, (7α,17β)-7-{9-[(4,4,5,5,5-pentafluoropentyl)sulfinyl]nonyl}estra-1,3,5(10)-triene-3,17-diol, reference compound] |  |  |  |  |  |  |  |  |  |  |  |  |  | 66.70 |  | 108.4
